# Measurements reported in patent US12565497B2 (Hoffmann-La Roche Inc., priority 2020, dated 2026).
# Target: Recombinant human Mat2a (Homo sapiens (Human), UniProt P31153)
# Test: Determination of Mat2A activity (384 well absorbance-based assay, Biomol Green)
# Assay type: biochemical
# Settings: 12.5 nM Mat2A, 100 μM ATP and Methionine, 2% DMSO, 120 minutes at RT, absorbance at 635 nm; read-out: MAT2A_LEC IC50 (uM) (Num)
# Protocol: Determination of Mat2A Activity
# Measurement of Mat2A inhibition is performed in 384 well format absorbance-based assay. Recombinant human Mat2a (12.5 nM) and serial diluted compounds in DMSO (range of concentrations from 10 μM to 508 pM) or controls (DMSO) are incubated for 15 minutes at room temperature (RT) in assay buffer containing 50 mM HEPES pH 7.5, 50 mM KCl, 50 mM MgCl2, 0.01%Tween 20 and 10 mM DTT. The reaction is initiated by the addition of the combined substrates ATP and Methionine, each at a final concentration of 100 μM. Final assay condition are 12.5 nM Mat2A, 100 μM ATP and Methionine Substrates and 2% DMSO. After 120 minutes of incubation at RT, the reaction is stopped by the addition of Biomol Green. The absorbance signal is measured at λ=635 nm with a multiplate reader (BMG Pherastar reader or equivalent) after 30 min of equilibration at RT.
# Chain of Recombinant human Mat2a (P31153 whole entry): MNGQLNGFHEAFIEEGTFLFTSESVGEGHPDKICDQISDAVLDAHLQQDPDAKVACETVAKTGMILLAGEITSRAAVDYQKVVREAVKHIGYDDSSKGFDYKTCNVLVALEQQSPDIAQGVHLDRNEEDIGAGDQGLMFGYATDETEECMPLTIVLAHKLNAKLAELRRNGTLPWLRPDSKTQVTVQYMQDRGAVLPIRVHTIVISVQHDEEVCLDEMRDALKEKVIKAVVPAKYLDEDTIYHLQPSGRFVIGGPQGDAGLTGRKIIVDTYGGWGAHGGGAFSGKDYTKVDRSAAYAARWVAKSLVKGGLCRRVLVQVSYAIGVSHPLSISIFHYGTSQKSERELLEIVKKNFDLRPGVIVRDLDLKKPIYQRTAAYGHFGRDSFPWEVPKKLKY
row,IC50 [µM],Structure (SMILES)
1,0.031,"Cc1cc(-n2c(=O)c(C)cc3[nH]nc(C4CC4)c32)ccc1S(C)(=O)=O [Example 80, 3-cyclopropyl-6-methyl-4-(3-methyl-4-methylsulfonyl-phenyl)-1H-pyrazolo[4,3-b]pyridin-5-one]"
2,0.079,"Cc1cc(-n2c(=O)c(C3CC3)cc3[nH]nc(C4CC4)c32)ccc1S(C)(=O)=O [Example 81, 3,6-dicyclopropyl-4-(3-methyl-4-methylsulfonyl-phenyl)-1H-pyrazolo[4,3-b]pyridin-5-one]"
3,< 0.013,"Cc1cc(-c2c(OC(F)F)ncc3[nH]nc(C4CC4)c23)ccc1S(C)(=O)=O [Example 82, 3-cyclopropyl-5-(difluoromethoxy)-4-(3-methyl-4-(methylsulfonyl)phenyl)-1H-pyrazolo[3,4-c]pyridine]"
4,0.5,"Cc1cc(-c2c(C(=O)N(C)C)ncc3[nH]nc(C4CC4)c23)ccc1S(C)(=O)=O [Example 83, 3-cyclopropyl-N,N-dimethyl-4-(3-methyl-4-(methylsulfonyl)phenyl)-1H-pyrazolo[3,4-c]pyridine-5-carboxamide]"
5,< 0.013,"CNC(=O)c1c(F)cc2[nH]nc(C3CC3)c2c1-c1ccc(S(C)(=O)=O)c(C)c1 [Example 88, 3-cyclopropyl-6-fluoro-N-methyl-4-(3-methyl-4-(methylsulfonyl)phenyl)-1H-indazole-5-carboxamide]"
6,< 0.013,"Cc1cc(-c2c(C#N)c(Cl)cc3[nH]nc(C4CC4)c23)ccc1S(C)(=O)=O [Example 90, 6-chloro-3-cyclopropyl-4-(3-methyl-4-methylsulfonylphenyl)-1H-indazole-5-carbonitrile]"
7,< 0.013,"Cc1cc(-n2c(=O)ccc3[nH]nc(OC(F)(F)F)c32)ccc1S(C)(=O)=O [Example 91, 4-(3-methyl-4-methylsulfonyl-phenyl)-3-(trifluoromethoxy)-1H-pyrazolo[4,3-b]pyridin-5-one]"
8,0.029,"Cc1cc(-n2c(=O)ccc3[nH]cc(C4CC4)c32)ccc1S(C)(=O)=O [Example 92, 3-cyclopropyl-4-(3-methyl-4-methylsulfonyl-phenyl)-1H-pyrrolo[3,2-b]pyridin-5-one]"
9,< 0.013,"Cc1cc(-c2c(S(C)(=O)=O)ccc3[nH]nc(OC(F)(F)F)c23)ccc1S(C)(=O)=O [Example 93, 4-(3-methyl-4-(methylsulfonyl)phenyl)-5-(methylsulfonyl)-3-(trifluoromethoxy)-1H-indazole]"
10,0.05,"CS(=O)(=O)c1ccc(-c2c(S(C)(=O)=O)ccc3[nH]nc(C4CC4)c23)cc1C(F)F [Example 94, 3-cyclopropyl-4-(3-(difluoromethyl)-4-(methylsulfonyl)phenyl)-5-(methylsulfonyl)-1H-indazole]"
11,< 0.013,"CNC(=O)c1ncc2[nH]nc(C3CC3)c2c1-c1cc(C)c(S(C)(=O)=O)cc1F [Example 97, 3-cyclopropyl-4-(2-fluoro-5-methyl-4-methylsulfonyl-phenyl)-N-methyl-1H-pyrazolo[3,4-c]pyridine-5-carboxamide]"
12,< 0.013,"Cc1cc(-c2c(C(N)=O)ncc3[nH]nc(OC(F)F)c23)ccc1S(C)(=O)=O [Example 98, 3-(difluoromethoxy)-4-(3-methyl-4-methylsulfonyl-phenyl)-1H-pyrazolo[3,4-c]pyridine-5-carboxamide]"
13,0.07,"CC(=O)NCCOCCNc1cnc(-c2ccc(S(C)(=O)=O)c(C)c2)c2c(C3CC3)n[nH]c12 [Example 99, N-[2-[2-[[3-cyclopropyl-4-(3-methyl-4-methylsulfonyl-phenyl)-1H-pyrazolo[4,3-c]pyridin-7-yl]amino]ethoxy]ethyl]acetamide]"
14,0.03,"CC(=O)NCCCNc1cnc(-c2ccc(S(C)(=O)=O)c(C)c2)c2c(C3CC3)n[nH]c12 [Example 100, N-[3-[[3-cyclopropyl-4-(3-methyl-4-methylsulfonyl-phenyl)-1H-pyrazolo[4,3-c]pyridin-7-yl]amino]propyl]acetamide]"
15,0.14,"Cc1cc(-c2ncc(NCCOCCN)c3[nH]nc(C4CC4)c23)ccc1S(C)(=O)=O [Example 101, N-[2-(2-aminoethoxy)ethyl]-3-cyclopropyl-4-(3-methyl-4-methylsulfonyl-phenyl)-1H-pyrazolo[4,3-c]pyridin-7-amine]"
16,0.06,"Cc1cc(-c2ncc(NCCCCN)c3[nH]nc(C4CC4)c23)ccc1S(C)(=O)=O [Example 102, N′-[3-cyclopropyl-4-(3-methyl-4-methylsulfonyl-phenyl)-1H-pyrazolo[4,3-c]pyridin-7-yl]butane-1,4-diamine]"
17,0.04,"CC(=O)NCCCCNc1cnc(-c2ccc(S(C)(=O)=O)c(C)c2)c2c(C3CC3)n[nH]c12 [Example 103, N-[4-[[3-cyclopropyl-4-(3-methyl-4-methylsulfonyl-phenyl)-1H-pyrazolo[4,3-c]pyridin-7-yl]amino]butyl]acetamide]"
18,0.04,"Cc1cc(-c2ncc(NCCCN)c3[nH]nc(C4CC4)c23)ccc1S(C)(=O)=O [Example 104, N′-[3-cyclopropyl-4-(3-methyl-4-methylsulfonyl-phenyl)-1H-pyrazolo[4,3-c]pyridin-7-yl]propane-1,3-diamine]"
19,< 0.013,"Cc1cc(-c2c(C#N)ncc3[nH]nc(OC(F)F)c23)ccc1S(=O)(=O)C(F)F [Example 105, 3-(difluoromethoxy)-4-(4-((difluoromethyl)sulfonyl)-3-methylphenyl)-1H-pyrazolo[3,4-c]pyridine-5-carbonitrile]"
20,< 0.013,"Cc1cc(-c2c(C(N)=O)ncc3[nH]nc(OC(F)F)c23)ccc1S(=O)(=O)C(F)F [Example 106, 3-(difluoromethoxy)-4-[4-(difluoromethylsulfonyl)-3-methyl-phenyl]-1H-pyrazolo[3,4-c]pyridine-5-carboxamide]"
21,0.013,"Cc1cc(-c2c(C(=O)NC3COC3)ncc3[nH]nc(OC(F)F)c23)ccc1S(=O)(=O)C(F)F [Example 107, 3-(difluoromethoxy)-4-[4-(difluoromethylsulfonyl)-3-methyl-phenyl]-N-(oxetan-3-yl)-1H-pyrazolo[3,4-c]pyridine-5-carboxamide]"
22,0.015,CNC(=O)c1ncc2[nH]nc(OC(F)F)c2c1-c1ccc(S(=O)(=O)C(F)F)c(C)c1 [Example 108]
23,< 0.013,"CNC(=O)c1ncc2[nH]nc(OC(F)F)c2c1-c1ccc(S(C)(=O)=O)c(C)c1 [Example 110, 3-(difluoromethoxy)-N-methyl-4-(3-methyl-4-methylsulfonyl-phenyl)-1H-pyrazolo[3,4-c]pyridine-5-carboxamide]"
24,< 0.013,"Cc1cc(-c2c(S(=O)(=O)C3COC3)ccc3[nH]nc(OC(F)F)c23)ccc1S(C)(=O)=O [Example 111, 3-(difluoromethoxy)-4-(3-methyl-4-methylsulfonyl-phenyl)-5-(oxetan-3-ylsulfonyl)-1H-indazole]"

row,Structure (SMILES),IC50 [µM]
1,Cc1cc(-c2c(C3CC3)ncc3[nH]nc(C4CC4)c23)ccc1S(C)(=O)=O [Example 85],0.02
2,"CNC(=O)c1ncc2[nH]nc(C3CC3)c2c1-c1ccc(S(=O)(=O)C2CC2)c(C)c1 [Example 89, 3-cyclopropyl-4-(4-cyclopropylsulfonyl-3-methyl-phenyl)-N-methyl-1H-pyrazolo[3,4-c]pyridine-5-carboxamide]",0.035
3,"CNC(=O)c1ncc2[nH]nc(C3CC3)c2c1-c1cc(C)c(S(=O)(=O)C2CC2)cc1F [Example 96, 3-cyclopropyl-4-(4-cyclopropylsulfonyl-2-fluoro-5-methyl-phenyl)-N-methyl-1H-pyrazolo[3,4-c]pyridine-5-carboxamide]",< 0.013
